The values that follow come from patent US20210198284A1, “GOLD COMPOSITIONS AND METHODS OF USE THEREOF” (THE UNIVERSITY OF MASSACHUSETTS, priority 2018, published 2021).

One data set relates to S. aureus JE2 (USA300). Put plainly: Antibacterial assay, MIC/MBC by broth microdilution (CLSI). The class given is cell-based. The settings on record: for MIC values in words: S. aureus. The procedure:
(§1) Antibacterial assay. The minimum inhibitory concentrations (MICs) and the minimum bactericidal concentrations (MBCs) were determined by the broth microdilution method as described in the CLSI (The Clinical & Laboratory Standards Institute) guidelines (Performance standards for antimicrobial susceptibility testing: Clinical and Laboratory Standards Institute (CLSI), Twenty-Fifth informational supplement. Document M100-S25: […]; Vol. 35). All bacterial strains were cultured in cation-adjusted Muller Hinton broth (CAMHB) up to log-phase and then diluted to give a concentration of 7.5×10^5 CFU/mL. The gold complexes were dissolved in DMSO or water as stock solutions, which were then serially diluted two-fold in a 96-well plate. Aliquots (100 μL) of the dilutions were mixed with equal volumes of the bacterium suspension in a 96 well plate (in triplicates). The plates were incubated at 37° C. for 18 h without shaking. Negative and positive controls were included in the same well plate with wells having the culture medium only and bacteria solution only, respectively. The sample concentration that gave inhibition values above 90% were determined as MICs as calculated from absorbance values at 600 nm (OD600) obtained using a Tecan SPARK IOM plate reader. To determine minimum bactericidal concentrations (MBCs), agar plates were treated with 5 μL sample solutions from each well, and then incubated at 37° C. for 18 h without shaking. The sample concentration that gave no colony formed on agar plates were determined as MBCs.
(§2) Selection of bacteria. The ESKAPE pathogens were chosen as they are responsible for the majority of nosocomial infections and also as they provide a good scope of strains including both Gram-negative and Gram-positive species. A. baumannii NCTC 13420 was originally identified in 24 hospitals in the UK during 2000-2003, which produced OXA-51-like β-lactamases, and was highly resistant to ampicillin, piperacillin, piperacillin/tazobactam, ceftazidime, cefotaxime, gentamicin and ciprofloxacin. P. aeruginosa NCTC13437 produces VIM-10 metallo-carbapenemase and VEB-1 (Vietnamese extended-spectrum beta-lactamase). Wild-type strain E. cloacae NCTC 13405 (originally named E. cloacae 684) was isolated from patients at the London Hospital during 1982-1983. This strain has inducible AmpC β-lactamase and is resistant to ampicillin/amoxicillin and cefoxitin. K. pneumoniae ATCC 700603 was isolated from the urine of a hospitalized patient in Richmond, Va. in 1994, and it produces SHV-18 extended spectrum beta-lactamase (ESBL). JE2 (USA300) is a methicillin-resistant S. aureus (MRSA) strain, also resistant to beta-lactams, ciprofloxacin, tetracycline, macrolides (erythromycin), lincosamides (clindamycin), streptogramin B, and mupirocin. E. faecium ATCC 700221, a positive fecal VRE (vancomycin-resistant enterococcus) isolate, is resistant to several antibiotics including vancomycin and teicoplanin. The quality control strain, Gram-negative E. coli ATCC 25922, was included in all assays and validated with ciprofloxacin and […].
In general terms: In broth dilution the organism is exposed to a series of concentrations in liquid medium.

Data set [1] in a line: Log P determination (n-octanol/water, FAAS). The settings on record: n-octanol/water, gold by FAAS; for logP: Log P. The procedure:
Log P Determination: Calibration curves. Milli-Q Water (150 mL) was added to n-octanol (150 mL), and the mixture was stirred for 3 days to allow both phases to reach saturation. The gold standard solution (1000 ppm Au in hydrochloric acid, Fisher Scientific) was diluted to 1, 2, 3, 4 and 5 ppm with n-octanol-saturated water, and the absorbance of the resulting solutions was measured by flame atomic absorption spectroscopy (FAAS, Agilent Technology 200 Series AA, equipped with a gold HC Lamp-Au coded). The absorbance data were plotted against Au concentration, and the resulting calibration curve was used for determining the concentration of the analogs in the aqueous phase.
To construct the standard calibration curve of the Au concentration in the n-octanol phase, compound 27 was used. The Au concentration in compound 27 was first calibrated against the aqueous gold standard. For this, 0.440 mg of compound 27 was weighed on a Sartorius MC5 microbalance, and then added to 22 mL of n-octanol-saturated water. […] For this, solutions of varying concentrations (0.99, 2.47, 4.94, 5.93, 9.88 ppm) of compound 27 in water-saturated n-octanol were prepared. The absorbance was measured by FAAS, and the data were plotted against the Au concentration to provide a second calibration curve, which was used for determining the Au concentration of the analogs in the n-octanol phase.
Determination of Au concentrations: Method 1. 0.5 to 1 mg of compound was weighed into a 2-mL Eppendorf tube containing 2 mL of n-octanol-saturated water. After shaking for about 4 h, the solution was centrifuged at 6000 rpm for 3 min. 1 mL of the supernatant was transferred to a new tube containing 1 mL of water-saturated n-octanol, and the mixture was shaken for 1 h. After centrifugation at 6000 rpm for 5 min, the two layers were collected and the gold concentration in each layer was determined by FAAS by comparing the absorbance to the first and second calibration curves.
Determination of Au concentrations: Method 2. […] For Method 2, 0.6 to 1 mg of compound was weighed into a 2-mL Eppendorf tube containing 1 mL of n-octanol-saturated water and 1 mL of water-saturated n-octanol. After shaking for 3-4 h, the mixture was centrifuged, and all liquid was transferred to a 15-mL tube. The liquid was then diluted with 2 mL of n-octanol-saturated saturated water and 2 mL of water-saturated n-octanol, and the mixture was shaken for another hour. After centrifugation at 6000 rpm for 5 min, the two layers were collected and the gold concentration in each layer was determined by FAAS by comparing the absorbance to the first and second calibration curves.
Log P was calculated as follows: log P=log[compound]oct/[compound]water

Another data set relates to E. faecalis ATCC 700221. In words: Antibacterial assay, MIC/MBC by broth microdilution (CLSI). The class given is cell-based. Conditions: repeated twice, a/b = both values. The procedure: as §1, §2
Another data set has as its system E. coli ATCC 25922. The description is as above. The class given is cell-based. The settings on record: repeated twice, a/b = both values. The procedure:
as §1, §2

In the next data set the test system is A. baumannii NCTC 13420. Described as above. The class given is cell-based. The settings on record: A. baumannii NCTC 13420; repeated twice, a/b = both values. The procedure:
as §1, §2

In another data set the test system is E. cloacae NCTC 13405. The description is as above. Conditions: for activity in words: E. cloacae. The class given is cell-based. The procedure:
as §1, §2

For a further data set, the system named is P. aeruginosa NCTC 13437. The description is as above. Conditions: P. aeruginosa. The class given is cell-based. The procedure:
as §1, §2

The subject of data set [2] is K. pneumoniae ATCC 700603. The data set is described as above. The settings on record: K. pneumoniae ATCC 700603; repeated twice, a/b = both values. The class given is cell-based. The procedure:
as §1, §2

On to `CC[P+](CC)(CC)[Au-][S]CC(F)(F)F` [Compound 26, (2,2,2-Trifluoroethanethiolato)(triethylphosphine) gold(I)], for which, in the data set with S. aureus JE2 (USA300), the “MIC values in words” value is recorded as “nanomolar range”. For the same compound, in data set [1], the logP (usually the decadic logarithm of the partition coefficient of the neutral form, usually between octanol and water) turned out to be 2.08.

Consider `CCCC[P+](CCCC)(CCCC)[Au-][S][C@@H]1OC(COC(C)=O)[C@@H](OC(C)=O)[C@H](OC(C)=O)C1OC(C)=O` (stereo partly drawn) [Compound 36, (2,3,4,6-Tetra-O-acetyl-1-thio-β-D-glucopyranosato)(tri-n-butylphosphine) gold(I)], for which the MIC against E. faecalis ATCC 700221 is 3/5. The logP in data set [1] was > 4.32.

`CC[P+](CC)(CC)[Au-][S]CC(=O)OC` [Compound 25, (Methyl mercaptoacetatato) (triethylphosphine) gold(I)]: the “MIC values in words” value with S. aureus JE2 (USA300) was “nanomolar range”. The same compound had a log partition coefficient (logP) in data set [1] of 1.75.

With `CC[P+](CC)(CC)[Au-][S][C@@H]1OC(CO)[C@@H](O)[C@H](O)C1NC(C)=O` (stereo partly drawn) [Compound 12, (2-Acetamido-2-deoxy-1-thio-β-D-glucopyranosato)(triethylphosphine) gold(I)], the MIC in the data set on E. coli ATCC 25922 was 7/4. The logP in data set [1] is -0.89.

As to `CC(=O)OCC1O[C@@H]([S][Au-][P+](c2ccc(C(F)(F)F)cc2)(c2ccc(C(F)(F)F)cc2)c2ccc(C(F)(F)F)cc2)C(OC(C)=O)[C@@H](OC(C)=O)[C@@H]1OC(C)=O` (stereo partly drawn) [Compound 40, (2,3,4,6-Tetra-O-acetyl-1-thio-β-D-glucopyranosato)(tris(4-(trifluoromethyl)phenylphosphine)) gold(I)], the log partition coefficient (logP) in data set [1] was > 3.55.

On to `Fc1ccc([P+]([Au-][Cl])(c2ccc(F)cc2)c2ccc(F)cc2)cc1` [Compound 33, (Tris(4-fluorphenyl)phosphine) gold chloride], for which the MIC against E. faecalis ATCC 700221 is 2/4. Moreover, the logP in data set [1] was > 4.04.

In turn, `CC[PH](CC)(CC)[Au][S][C@@H]1OC(COC(C)=O)[C@@H](OC(C)=O)[C@H](OC(C)=O)C1NC(C)=O` (stereo partly drawn) [Compound 3, (3,4,6-Tri-O-acetyl-2-N-acetyl-1-thio-β-D-glucopyranosato) (triethylphosphine) gold (1)] displayed a logP in data set [1] of 0.26.

As to `CC[P+](CC)(CC)[Au-][S]c1ccc(SCC(=O)NC2[C@H](OC(C)=O)OC(COC(C)=O)[C@@H](OC(C)=O)[C@@H]2OC(C)=O)cc1` (stereo partly shown) [Compound 8], in the data set on A. baumannii NCTC 13420, the MIC is 76/19. Further, the logP in data set [1] was -0.36.

For `CC[P+](CC)(CC)[Au-][S]c1ccc(C(F)(F)F)cc1` [Compound 23, (4-(Trifluromethyl)benzenethiolato)(triethylphosphine) gold(I)], the activity in words entry in the data set with E. cloacae NCTC 13405 was “completely diminished the activity”. Besides, in data set [1], the logP was > 3; the Log P (in general, the decadic logarithm of the partition coefficient of the neutral form, usually between octanol and water) was >3.18.

For `CC(=O)OCC1O[C@@H]([S][Au-][P+](c2ccc(F)cc2)(c2ccc(F)cc2)c2ccc(F)cc2)C(OC(C)=O)[C@@H](OC(C)=O)[C@@H]1OC(C)=O` (stereo partly drawn) [Compound 39, (2,3,4,6-Tetra-O-acetyl-1-thio-β-D-glucopyranosato)(tris(4-fluorophenyl)phosphine)gold(I)], the MIC against E. faecalis ATCC 700221 is reported as 2/5. In addition, the logP in data set [1] was > 3.04.

`COc1ccc([P+]([Au-][S][C@@H]2OC(COC(C)=O)[C@@H](OC(C)=O)[C@H](OC(C)=O)C2OC(C)=O)(c2ccc(OC)cc2)c2ccc(OC)cc2)cc1` (stereo partly drawn) [Compound 38, (2,3,4,6-Tetra-O-acetyl-1-thio-β-D-glucopyranosato)(tris(4-methoxyphenyl)phosphine) gold(I)]: in the data set with E. faecalis ATCC 700221, the MIC is listed as 2/4. Besides, the logP in data set [1] is > 3.03.

With `CC(=O)OCC1O[C@@H]([S][Au-][P+](c2ccccc2)(c2ccccc2)c2ccccc2)C(OC(C)=O)[C@@H](OC(C)=O)[C@@H]1OC(C)=O` (stereo partly drawn) [Compound 37, (2,3,4,6-Tetra-O-acetyl-1-thio-β-D-glucopyranosato)(triphenylphosphine) gold(I)], the MIC in the data set with S. aureus JE2 (USA300) (S. aureus JE2 (USA300), repeated twice, a/b = both values) is 1/2. Moreover, in data set [1], the logP is > 3.87.

With `CC[P+](CC)(CC)[Au-][S]CCO` [Compound 24, (2-Mercaptoethanolato)(triethylphosphine) gold(I)], in the data set with E. cloacae NCTC 13405 (E. cloacae NCTC 13405, repeated twice, a/b = both values), the MIC is 5/10. Moreover, in the data set with P. aeruginosa NCTC 13437, the activity in words entry is reported as “showed activity”. Also, the logP in data set [1] was 1.19.

`C[P+](C)(C)[Au-][Cl]` [Compound 28, (Trimethylphosphine) gold chloride]: the MIC (with A. baumannii NCTC 13420; in data set [2]) was 7/13 each time. Besides, the activity in words result in the data set with P. aeruginosa NCTC 13437 is reported as “showed activity”. The compound also returned a logP in data set [1] of 0.16.

In the case of `CC[P+](CC)(CC)[Au-][S]c1ccc([N+](=O)[O-])cc1` [Compound 22, (4-Nitrobenzenethiolato)(triethylphosphine) gold(I)], the activity in words entry in the data set with E. cloacae NCTC 13405 is given as “completely diminished the activity”. In the data set on S. aureus JE2 (USA300), the “MIC values in words” value is “nanomolar range”. Further, in data set [1], the logP was > 3 and the log partition coefficient (Log P) is reported as >3.28.

Take `CC(=O)OCC1O[C@@H]([S][Au-][P+](C)(C)C)C(OC(C)=O)[C@@H](OC(C)=O)[C@@H]1OC(C)=O` (stereo partly drawn) [Compound 35, (2,3,4,6-Tetra-O-acetyl-1-thio-β-D-glucopyranosato)(trimethylphosphine) gold(I)]: the MIC against A. baumannii NCTC 13420 is listed as 6/13. Besides, the activity in words entry in the data set with P. aeruginosa NCTC 13437 was “four-fold improvement in activity over 15”. The same compound showed a logP in data set [1] of 0.35.
